Data: article PMC5218480 (PLoS ONE, 2017)

Test system: MV-4-11 cells
Assay: Gene expression microarray analysis (Affymetrix PrimeView) and GSEA
Type: cell-based, human
Design: RFU PODN (11730768_x_at) / Fold change /veh PODN (11730768_x_at) / RFU LINC00158 (11744669_a_at) / Fold change /veh LINC00158 (11744669_a_at) / RFU DUSP10 (11751237_a_at) / Fold change /veh DUSP10 (11751237_a_at) / RFU ID3 (11757404_x_at) / Fold change /veh ID3 (11757404_x_at) / RFU PLEKHG5 (11737974_s_at) / Fold change /veh PLEKHG5 (11737974_s_at) / RFU LRRC4B (11730491_at) / Fold change /veh LRRC4B (11730491_at) / RFU GIMAP4 (11747438_a_at) / Fold change /veh GIMAP4 (11747438_a_at) / RFU KRT8 (11758183_x_at) / Fold change /veh KRT8 (11758183_x_at) / RFU CNN1 (11734310_a_at) / Fold change /veh CNN1 (11734310_a_at) / RFU VPS37D (11726825_at) / Fold change /veh VPS37D (11726825_at) / RFU C10orf10 (11716522_x_at) / Fold change /veh C10orf10 (11716522_x_at) / RFU KIR2DL2 /// KIR2DL4 /// KIR2DL5A /// KIR2DL5B /// KIR2DS1 /// KIR2DS2 /// KIR2DS3 /// KIR2DS4 /// KIR3DL3 /// KIR3DL3 /// KIR3DS1 (11738374_at) / Fold change /veh KIR2DL2 /// KIR2DL4 /// KIR2DL5A /// KIR2DL5B /// KIR2DS1 /// KIR2DS2 /// KIR2DS3 /// KIR2DS4 /// KIR3DL3 /// KIR3DL3 /// KIR3DS1 (11738374_at) / RFU C1QL1 (11718748_at) / Fold change /veh C1QL1 (11718748_at) / RFU TMPRSS4 (11747572_a_at) / Fold change /veh TMPRSS4 (11747572_a_at) / RFU HAMP (11756126_x_at) / Fold change /veh HAMP (11756126_x_at) / RFU RNFT2 (11725882_a_at) / Fold change /veh RNFT2 (11725882_a_at) / RFU NR4A2 (11747474_a_at) / Fold change /veh NR4A2 (11747474_a_at) / RFU ABCC12 (11746883_a_at) / Fold change /veh ABCC12 (11746883_a_at) / RFU TMEM136 (11760407_x_at) / Fold change /veh TMEM136 (11760407_x_at) / RFU CLDN22 /// WWC2 (11732394_at) / Fold change /veh CLDN22 /// WWC2 (11732394_at) / RFU HLA-DPB1 (11760878_x_at) / Fold change /veh HLA-DPB1 (11760878_x_at) / RFU SPINT1 (11716480_a_at) / Fold change /veh SPINT1 (11716480_a_at) / RFU GAP43 (11754022_s_at) / Fold change /veh GAP43 (11754022_s_at) / RFU A4GNT (11735810_at) / Fold change /veh A4GNT (11735810_at) / RFU PRB3 (11715151_x_at) / Fold change /veh PRB3 (11715151_x_at) / RFU TUBB4B (11761932_at) / Fold change /veh TUBB4B (11761932_at) / RFU CAPN14 (11732068_a_at) / Fold change /veh CAPN14 (11732068_a_at) / RFU TMCC2 (11721928_a_at) / Fold change /veh TMCC2 (11721928_a_at) / RFU IRGQ (11745062_a_at) / Fold change /veh IRGQ (11745062_a_at) / RFU FAM174B (11720279_a_at) / Fold change /veh FAM174B (11720279_a_at) / RFU TMPRSS4 (11748680_a_at) / Fold change /veh TMPRSS4 (11748680_a_at) / RFU FAM212B (11763350_a_at) / Fold change /veh FAM212B (11763350_a_at) / RFU PLEKHG5 (11743358_a_at) / Fold change /veh PLEKHG5 (11743358_a_at) / RFU ZSCAN30 (11745921_a_at) / Fold change /veh ZSCAN30 (11745921_a_at) / RFU CMKLR1 (11741424_a_at) / Fold change /veh CMKLR1 (11741424_a_at) / RFU LOC101060620 /// MAPK8IP1 (11723275_at) / Fold change /veh LOC101060620 /// MAPK8IP1 (11723275_at) / RFU SPTSSB (11747773_x_at) / Fold change /veh SPTSSB (11747773_x_at) / RFU PRSS12 (11739890_at) / Fold change /veh PRSS12 (11739890_at) / RFU BIN1 (11741810_x_at) / Fold change /veh BIN1 (11741810_x_at) / RFU WNT11 (11732464_a_at) / Fold change /veh WNT11 (11732464_a_at) / RFU C10orf10 (11716521_a_at) / Fold change /veh C10orf10 (11716521_a_at) / RFU C5orf56 (11738089_at) / Fold change /veh C5orf56 (11738089_at) / RFU CYB561 (11721691_x_at) / Fold change /veh CYB561 (11721691_x_at) / RFU ANKRD19P (11752326_a_at) / Fold change /veh ANKRD19P (11752326_a_at) / RFU OR2T12 /// OR2T33 /// OR2T8 (11738714_s_at) / Fold change /veh OR2T12 /// OR2T33 /// OR2T8 (11738714_s_at) / RFU VCAN (11748164_a_at) / Fold change /veh VCAN (11748164_a_at) / RFU JSRP1 (11732532_at) / Fold change /veh JSRP1 (11732532_at) / RFU KRTAP10-11 (11738290_x_at) / Fold change /veh KRTAP10-11 (11738290_x_at) / RFU MYO3A (11730013_a_at) / Fold change /veh MYO3A (11730013_a_at) / RFU EBF3 (11725865_a_at) / Fold change /veh EBF3 (11725865_a_at) / RFU CAMK2N1 (11719241_x_at) / Fold change /veh CAMK2N1 (11719241_x_at) / RFU C5orf56 (11738088_a_at) / Fold change /veh C5orf56 (11738088_a_at) / RFU OLFML3 (11715873_a_at) / Fold change /veh OLFML3 (11715873_a_at) / RFU LOC100653217 /// NTM (11731650_a_at) / Fold change /veh LOC100653217 /// NTM (11731650_a_at) / RFU MAPK11 (11762145_a_at) / Fold change /veh MAPK11 (11762145_a_at) / RFU FIZ1 (11724087_x_at) / Fold change /veh FIZ1 (11724087_x_at) / RFU OASL (11726364_x_at) / Fold change /veh OASL (11726364_x_at) / RFU SOX15 (11748057_x_at) / Fold change /veh SOX15 (11748057_x_at) / RFU CD79A (11719716_a_at) / Fold change /veh CD79A (11719716_a_at) / RFU HIST1H1D (11736915_at) / Fold change /veh HIST1H1D (11736915_at) / RFU CASKIN2 (11723855_a_at) / Fold change /veh CASKIN2 (11723855_a_at) / RFU LOC730098 (11760151_x_at) / Fold change /veh LOC730098 (11760151_x_at) / RFU OR4N2 (11742367_at) / Fold change /veh OR4N2 (11742367_at) / RFU PRRT2 (11749266_a_at) / Fold change /veh PRRT2 (11749266_a_at) / RFU SNX32 (11753110_a_at) / Fold change /veh SNX32 (11753110_a_at) / RFU CDHR5 (11726645_a_at) / Fold change /veh CDHR5 (11726645_a_at) / RFU RCAN1 (11760418_a_at) / Fold change /veh RCAN1 (11760418_a_at) / RFU FAM167A (11723789_a_at) / Fold change /veh FAM167A (11723789_a_at) / RFU FAM26E (11764081_at) / Fold change /veh FAM26E (11764081_at) / RFU ISYNA1 (11749810_s_at) / Fold change /veh ISYNA1 (11749810_s_at) / RFU ACY1 (11761880_at) / Fold change /veh ACY1 (11761880_at) / RFU 11764098_at / Fold change /veh 11764098_at / RFU SAMD14 (11745864_x_at) / Fold change /veh SAMD14 (11745864_x_at) / RFU NPB (11741838_a_at) / Fold change /veh NPB (11741838_a_at) / RFU TMPRSS6 (11731388_a_at) / Fold change /veh TMPRSS6 (11731388_a_at) / RFU KRTAP10-2 (11738614_at) / Fold change /veh KRTAP10-2 (11738614_at) / RFU ARHGAP8 /// PRR5-ARHGAP8 (11727945_x_at) / Fold change /veh ARHGAP8 /// PRR5-ARHGAP8 (11727945_x_at) / RFU KRTAP5-7 /// NADSYN1 (11734609_at) / Fold change /veh KRTAP5-7 /// NADSYN1 (11734609_at) / RFU RASL12 (11751679_a_at) / Fold change /veh RASL12 (11751679_a_at) / RFU CDKN2B (11736163_a_at) / Fold change /veh CDKN2B (11736163_a_at) / RFU PRF1 (11729649_at) / Fold change /veh PRF1 (11729649_at) / RFU, ZNF638 /// ZNF638-IT1 / Fold change vs veh, ZNF638 /// ZNF638-IT1 / RFU, PANK3 / Fold change vs veh, PANK3 / RFU, SH3YL1 / Fold change vs veh, SH3YL1 / RFU, ZEB2 / Fold change vs veh, ZEB2 / RFU, NRIP1 / Fold change vs veh, NRIP1 / RFU, PTTG1IP / Fold change vs veh, PTTG1IP / RFU, CAPN2 / Fold change vs veh, CAPN2 / RFU, MED14 / Fold change vs veh, MED14 / RFU, SNORA58 / Fold change vs veh, SNORA58 / RFU, C1orf63 / Fold change vs veh, C1orf63 / RFU, LRRFIP1 / Fold change vs veh, LRRFIP1 / RFU, NDUFAF7 / Fold change vs veh, NDUFAF7 / RFU, SLC12A2 / Fold change vs veh, SLC12A2 / RFU, IBTK / Fold change vs veh, IBTK / RFU, ESF1 / Fold change vs veh, ESF1 / Fold change vs veh, TMEM50B / RFU, TAOK1 / Fold change vs veh, TAOK1 / RFU, ACBD3 / Fold change vs veh, ACBD3 / RFU, TMA16 / Fold change vs veh, TMA16 / RFU, RWDD3 / Fold change vs veh, RWDD3 / RFU, BCAT1 / Fold change vs veh, BCAT1 / RFU, EDEM3 / Fold change vs veh, EDEM3 / RFU, TMEM33 / Fold change vs veh, TMEM33 / RFU, WDR75 / Fold change vs veh, WDR75 / RFU, AHCTF1 / Fold change vs veh, AHCTF1 / RFU, TFRC / Fold change vs veh, TFRC / RFU, ZDHHC17 / Fold change vs veh, ZDHHC17 / RFU, NOM1 / Fold change vs veh, NOM1 / RFU, ARL8B / Fold change vs veh, ARL8B / RFU, ZBTB11 / Fold change vs veh, ZBTB11 / RFU, TAMM41 / Fold change vs veh, TAMM41 / RFU, KIAA1704 /// LOC100996395 / Fold change vs veh, KIAA1704 /// LOC100996395 / RFU, ING1 / Fold change vs veh, ING1 / RFU, TRMT61B / Fold change vs veh, TRMT61B / RFU, FUBP3 / Fold change vs veh, FUBP3 / RFU, TP53 / Fold change vs veh, TP53 / RFU, TNKS2 / Fold change vs veh, TNKS2 / RFU, ZFP14 / Fold change vs veh, ZFP14 / RFU, ACTR2 / Fold change vs veh, ACTR2 / RFU, PPP3R1 / Fold change vs veh, PPP3R1 / RFU, PIK3R1 / Fold change vs veh, PIK3R1 / RFU, HNRNPA1 / Fold change vs veh, HNRNPA1 / RFU, RNF170 / Fold change vs veh, RNF170 / RFU, ZNF28 / Fold change vs veh, ZNF28 / RFU, RNGTT / Fold change vs veh, RNGTT / RFU, OGT / Fold change vs veh, OGT / RFU, BRD1 / Fold change vs veh, BRD1 / RFU, MARS / Fold change vs veh, MARS / RFU, ZNF655 / Fold change vs veh, ZNF655 / RFU, FAHD1 / Fold change vs veh, FAHD1 / RFU, BDP1 / Fold change vs veh, BDP1 / RFU, LRRCC1 / Fold change vs veh, LRRCC1 / RFU, ARID1A / Fold change vs veh, ARID1A / RFU, ZNF146 / Fold change vs veh, ZNF146 / RFU, ZNF330 / Fold change vs veh, ZNF330 / RFU, GPN3 / Fold change vs veh, GPN3 / RFU, C9orf123 / Fold change vs veh, C9orf123 / RFU, N4BP2L2 / Fold change vs veh, N4BP2L2 / RFU, ARFIP1 / Fold change vs veh, ARFIP1 / RFU, FAM179B / Fold change vs veh, FAM179B / RFU, BCL10 / Fold change vs veh, BCL10 / RFU, UHRF1BP1L / Fold change vs veh, UHRF1BP1L / RFU, BET1 / Fold change vs veh, BET1 / RFU, CNOT2 / Fold change vs veh, CNOT2 / RFU, ZNF268 / Fold change vs veh, ZNF268 / Fold change vs veh, ZNF507 / RFU, DGCR2 / Fold change vs veh, DGCR2 / RFU, WDSUB1 / Fold change vs veh, WDSUB1 / Fold change vs veh, HSP90B1 /// MIR3652 / RFU, ADSS / Fold change vs veh, ADSS / RFU, GK / Fold change vs veh, GK / RFU, ZNF148 / Fold change vs veh, ZNF148 / RFU, TAF9 / Fold change vs veh, TAF9 / RFU, SLC1A5 / Fold change vs veh, SLC1A5 / RFU, SLMO2 / Fold change vs veh, SLMO2 / RFU, ABCC4 / Fold change vs veh, ABCC4 / RFU, LOC101060439 /// RAP1B / Fold change vs veh, LOC101060439 /// RAP1B / RFU, RFX7 / Fold change vs veh, RFX7 / RFU, GTPBP10 / Fold change vs veh, GTPBP10 / RFU, CNEP1R1 / Fold change vs veh, CNEP1R1 / RFU, BIVM-ERCC5 /// ERCC5 / Fold change vs veh, BIVM-ERCC5 /// ERCC5 / RFU, ILF3 / Fold change vs veh, ILF3 / RFU 11762660_at / Fold change /veh 11762660_at / RFU VCAN (11757783_s_at) / Fold change /veh VCAN (11757783_s_at) / RFU DDX43 (11728927_at) / Fold change /veh DDX43 (11728927_at) / RFU KRT8 (11758188_x_at) / Fold change /veh KRT8 (11758188_x_at) / RFU NKD1 (11759106_at) / Fold change /veh NKD1 (11759106_at) / RFU SRD5A1 (11742802_a_at) / Fold change /veh SRD5A1 (11742802_a_at) / RFU TPSAB1 /// TPSB2 (11721975_s_at) / Fold change /veh TPSAB1 /// TPSB2 (11721975_s_at) / RFU GSTM3 (11746129_a_at) / Fold change /veh GSTM3 (11746129_a_at) / RFU IL23R (11737362_x_at) / Fold change /veh IL23R (11737362_x_at) / RFU TMEM51 (11727254_a_at) / Fold change /veh TMEM51 (11727254_a_at) / RFU PIWIL2 (11732686_x_at) / Fold change /veh PIWIL2 (11732686_x_at) / RFU ORM1 (11744905_x_at) / Fold change /veh ORM1 (11744905_x_at) / RFU CCDC152 (11743942_at) / Fold change /veh CCDC152 (11743942_at) / RFU ECM1 (11717891_a_at) / Fold change /veh ECM1 (11717891_a_at) / RFU IL23R (11748794_a_at) / Fold change /veh IL23R (11748794_a_at) / RFU TNFAIP8L3 (11732012_x_at) / Fold change /veh TNFAIP8L3 (11732012_x_at) / RFU MBOAT4 (11741988_at) / Fold change /veh MBOAT4 (11741988_at) / RFU 11764193_at / Fold change /veh 11764193_at / RFU TMEM53 (11763286_at) / Fold change /veh TMEM53 (11763286_at) / RFU MAGEB2 (11727129_at) / Fold change /veh MAGEB2 (11727129_at) / RFU TMEM200A (11744735_a_at) / Fold change /veh TMEM200A (11744735_a_at) / RFU CCDC152 (11751479_a_at) / Fold change /veh CCDC152 (11751479_a_at) / RFU FAM211A (11726209_a_at) / Fold change /veh FAM211A (11726209_a_at) / RFU RGS16 (11746705_a_at) / Fold change /veh RGS16 (11746705_a_at) / RFU VCAN (11755009_s_at) / Fold change /veh VCAN (11755009_s_at) / RFU RHOB (11743442_s_at) / Fold change /veh RHOB (11743442_s_at) / RFU RGS16 (11720943_a_at) / Fold change /veh RGS16 (11720943_a_at) / RFU RGS16 (11720944_at) / Fold change /veh RGS16 (11720944_at) / RFU, VPS4B / Fold change vs veh, VPS4B / RFU, CREB1 / Fold change vs veh, CREB1 / RFU, DNAJC13 / Fold change vs veh, DNAJC13 / RFU, GNAQ / Fold change vs veh, GNAQ / RFU, CDK5R1 / Fold change vs veh, CDK5R1 / RFU, ZRANB3 / Fold change vs veh, ZRANB3 / RFU, CUL4A / Fold change vs veh, CUL4A / RFU, CCNY / Fold change vs veh, CCNY / RFU, UFL1 / Fold change vs veh, UFL1 / RFU, COG3 / Fold change vs veh, COG3 / RFU, DIAPH2 / Fold change vs veh, DIAPH2 / RFU, SKA2 / Fold change vs veh, SKA2 / RFU, AFF3 / Fold change vs veh, AFF3 / RFU, LMF1 / Fold change vs veh, LMF1 / RFU, IPO11 / Fold change vs veh, IPO11 / RFU, DFFB / Fold change vs veh, DFFB / RFU, FOXP1 / Fold change vs veh, FOXP1 / RFU, CARD8 / Fold change vs veh, CARD8 / RFU, STRN3 / Fold change vs veh, STRN3 / RFU, ADK / Fold change vs veh, ADK / RFU, RASSF2 / Fold change vs veh, RASSF2 / RFU, WIPF1 / Fold change vs veh, WIPF1 / RFU, LARP1B / Fold change vs veh, LARP1B / RFU, RASA1 / Fold change vs veh, RASA1 / RFU, RB1 / Fold change vs veh, RB1 / RFU, PPFIA1 / Fold change vs veh, PPFIA1 / RFU, MAT2A / Fold change vs veh, MAT2A / RFU, CCT5 / Fold change vs veh, CCT5 / RFU, WDR92 / Fold change vs veh, WDR92 / RFU, CUX1 / Fold change vs veh, CUX1 / RFU, TTC7A / Fold change vs veh, TTC7A / RFU, TMEM135 / Fold change vs veh, TMEM135 / RFU, DEPTOR / Fold change vs veh, DEPTOR / RFU, CPM / Fold change vs veh, CPM / RFU, DNAJB6 / Fold change vs veh, DNAJB6 / RFU, CACNA2D3 / Fold change vs veh, CACNA2D3 / RFU, DTX4 / Fold change vs veh, DTX4 / RFU, TFCP2 / Fold change vs veh, TFCP2 / RFU, GMCL1 /// GMCL1P1 / Fold change vs veh, GMCL1 /// GMCL1P1 / RFU, AEBP2 / Fold change vs veh, AEBP2 / RFU, SNHG1 /// SNORD22 /// SNORD25 /// SNORD26 /// SNORD27 /// SNORD28 /// SNORD29 /// SNORD31 / Fold change vs veh, SNHG1 /// SNORD22 /// SNORD25 /// SNORD26 /// SNORD27 /// SNORD28 /// SNORD29 /// SNORD31 / Fold change (Aza/veh), C12orf56 (ProbeSet 11735607_a_at) / Fold change (ACY-1035/veh), C12orf56 (ProbeSet 11735607_a_at) / Fold change (Aza/veh), FGFR1OP (ProbeSet 11751329_s_at) / Fold change (ACY-1035/veh), FGFR1OP (ProbeSet 11751329_s_at) / Fold change (Aza/veh), VPS36 (ProbeSet 11739960_a_at) / Fold change (ACY-1035/veh), VPS36 (ProbeSet 11739960_a_at) / RFU SYPL1 (11715823_x_at) / Fold change /veh SYPL1 (11715823_x_at) / RFU IGFBP7 (11715501_s_at) / Fold change /veh IGFBP7 (11715501_s_at) / RFU REEP3 (11722064_at) / Fold change /veh REEP3 (11722064_at) / RFU IGLL1 (11728026_x_at) / Fold change /veh IGLL1 (11728026_x_at): dose or concentration left out as unconfirmed
Conditions: MV-4-11 cells, 48 hours

Question: Which “Fold change /veh TMPRSS4 (11748680_a_at)” value does the source give for Nc1ccc(-c2cccs2)cc1NC(=O)c1ccc2c(c1)cc(C1CC1)n2CCN1CCOCC1 [ACY-1035] here?
Answer: The value was 1.05.
